From ChEMBL document CHEMBL1909046, “DrugMatrix in vitro pharmacology data”

Columns and labels:
[1] = molecular target: Protein phosphatase 3 catalytic subunit alpha (Homo sapiens, UniProt Q08209); parameters: species or system Escherichia coli;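 further: inhibition of calcineurin (PP2B) enzyme activity, measured with DiFMUP as the substrate; in other assays of this panel Not Active means under 50% inhibition at 10 µM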
[2] = DRUGMATRIX: Imidazoline I2, Central radioligand binding (ligand: [3H] Idazoxan); format: cell membranes, Rattus norvegicus, Wistar, Cerebral cortex, Membrane; settings: Not Active = under 50% inhibition at 10 µM
[3] = molecular target: T1, Neuropeptide Y receptor type 2 (Homo sapiens, UniProt P49146); format: cell membranes, Membrane; settings: kan-ts; further: in other assays of this panel Not Active means under 50% inhibition at 10 µM
T1 sequence (P49146 whole entry): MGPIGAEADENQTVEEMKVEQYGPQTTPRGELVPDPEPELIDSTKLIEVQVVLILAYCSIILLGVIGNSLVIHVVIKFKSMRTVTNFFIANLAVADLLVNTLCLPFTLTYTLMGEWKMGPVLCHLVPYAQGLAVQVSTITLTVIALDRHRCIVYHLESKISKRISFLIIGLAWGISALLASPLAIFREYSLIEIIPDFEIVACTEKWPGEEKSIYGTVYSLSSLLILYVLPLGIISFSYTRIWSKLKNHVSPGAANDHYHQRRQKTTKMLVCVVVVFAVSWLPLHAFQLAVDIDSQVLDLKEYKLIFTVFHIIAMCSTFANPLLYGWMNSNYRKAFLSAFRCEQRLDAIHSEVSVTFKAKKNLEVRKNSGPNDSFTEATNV

[4] = molecular target: Sigma non-opioid intracellular receptor 1 (Homo sapiens, UniProt Q99720); test: DRUGMATRIX: Sigma1 radioligand binding (ligand: [3H] Haloperidol); format: cell membranes, Jurkat, Membrane; settings: jurkat; Not Active = under 50% inhibition at 10 µM
Chain of Sigma non-opioid intracellular receptor 1 (Q99720 whole entry): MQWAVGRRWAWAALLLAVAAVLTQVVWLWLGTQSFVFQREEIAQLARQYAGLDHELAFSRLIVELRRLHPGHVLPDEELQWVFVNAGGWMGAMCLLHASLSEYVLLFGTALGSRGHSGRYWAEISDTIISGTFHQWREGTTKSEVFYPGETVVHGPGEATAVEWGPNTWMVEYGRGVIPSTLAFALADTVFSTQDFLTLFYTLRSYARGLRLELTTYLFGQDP

[5] = molecular target: Platelet-activating factor receptor (Homo sapiens, UniProt P25105); test: biochemical; format: tissue-based; settings: platelet; further: in other assays of this panel Not Active means under 50% inhibition at 10 µM
Chain of Platelet-activating factor receptor (P25105 whole entry): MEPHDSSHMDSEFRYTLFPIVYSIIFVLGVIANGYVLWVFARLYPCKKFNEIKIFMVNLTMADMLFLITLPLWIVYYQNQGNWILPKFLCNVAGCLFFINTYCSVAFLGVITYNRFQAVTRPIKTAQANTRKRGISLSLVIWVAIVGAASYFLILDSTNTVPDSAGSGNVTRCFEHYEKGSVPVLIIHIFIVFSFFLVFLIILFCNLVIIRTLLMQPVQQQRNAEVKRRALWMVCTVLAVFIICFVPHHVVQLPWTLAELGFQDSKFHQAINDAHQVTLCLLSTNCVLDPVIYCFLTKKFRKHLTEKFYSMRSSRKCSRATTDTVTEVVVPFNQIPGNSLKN

[6] = molecular target: T2, 3-hydroxy-3-methylglutaryl-coenzyme A reductase (Homo sapiens, UniProt P04035); parameters: species or system Escherichia coli;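 further: enzyme inhibition assay of HMG-CoA reductase using radiolabeled [14C]HMG-CoA as substrate; in other assays of this panel Not Active means under 50% inhibition at 10 µM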
T2 sequence (P04035 whole entry): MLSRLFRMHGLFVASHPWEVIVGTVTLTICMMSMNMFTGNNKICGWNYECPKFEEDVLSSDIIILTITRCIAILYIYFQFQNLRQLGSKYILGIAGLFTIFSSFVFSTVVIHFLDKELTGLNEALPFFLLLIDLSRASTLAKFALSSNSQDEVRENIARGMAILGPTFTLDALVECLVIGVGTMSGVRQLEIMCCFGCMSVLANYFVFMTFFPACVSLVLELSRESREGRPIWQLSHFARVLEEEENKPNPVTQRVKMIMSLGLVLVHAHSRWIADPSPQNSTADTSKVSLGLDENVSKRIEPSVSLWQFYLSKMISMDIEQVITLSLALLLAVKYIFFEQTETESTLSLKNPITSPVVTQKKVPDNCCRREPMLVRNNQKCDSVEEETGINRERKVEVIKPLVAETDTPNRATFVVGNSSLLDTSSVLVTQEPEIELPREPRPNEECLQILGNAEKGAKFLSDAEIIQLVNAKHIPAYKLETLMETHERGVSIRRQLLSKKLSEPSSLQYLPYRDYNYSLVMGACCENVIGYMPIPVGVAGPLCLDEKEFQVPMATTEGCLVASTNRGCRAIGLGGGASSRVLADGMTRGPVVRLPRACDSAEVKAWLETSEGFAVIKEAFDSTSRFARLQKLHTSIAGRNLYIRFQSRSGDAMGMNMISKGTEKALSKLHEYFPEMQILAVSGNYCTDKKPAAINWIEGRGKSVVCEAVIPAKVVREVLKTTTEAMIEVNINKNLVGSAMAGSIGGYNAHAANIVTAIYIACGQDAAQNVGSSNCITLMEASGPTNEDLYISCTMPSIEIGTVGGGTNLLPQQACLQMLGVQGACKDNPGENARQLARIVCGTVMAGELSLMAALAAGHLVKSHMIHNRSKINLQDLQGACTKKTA

[7] = molecular target: 5-hydroxytryptamine receptor 2B (Homo sapiens, UniProt P41595); format: cell membranes, CHO-K1, Membrane; further: in other assays of this panel Not Active means under 50% inhibition at 10 µM
Chain of 5-hydroxytryptamine receptor 2B (P41595 whole entry): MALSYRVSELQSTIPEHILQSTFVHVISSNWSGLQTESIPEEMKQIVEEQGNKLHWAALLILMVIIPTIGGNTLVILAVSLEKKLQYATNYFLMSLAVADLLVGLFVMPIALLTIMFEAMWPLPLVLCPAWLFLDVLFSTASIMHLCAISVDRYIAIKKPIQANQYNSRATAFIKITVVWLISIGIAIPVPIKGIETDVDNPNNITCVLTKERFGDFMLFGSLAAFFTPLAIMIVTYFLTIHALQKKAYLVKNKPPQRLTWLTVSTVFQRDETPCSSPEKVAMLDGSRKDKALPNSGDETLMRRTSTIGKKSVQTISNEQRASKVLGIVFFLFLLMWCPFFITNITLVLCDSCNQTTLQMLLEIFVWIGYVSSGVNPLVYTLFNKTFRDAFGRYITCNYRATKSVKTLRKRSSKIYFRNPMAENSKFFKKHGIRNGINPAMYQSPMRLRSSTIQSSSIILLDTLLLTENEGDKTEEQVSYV

Acetylcholinesterase = Acetylcholinesterase (Homo sapiens, UniProt P22303); test: DRUGMATRIX: Acetylcholinesterase enzyme inhibition (substrate: acetylthiocholine); format: cell-based, HEK293; settings: hek293; Not Active = under 50% inhibition at 10 µM
Chain of Acetylcholinesterase (P22303 whole entry): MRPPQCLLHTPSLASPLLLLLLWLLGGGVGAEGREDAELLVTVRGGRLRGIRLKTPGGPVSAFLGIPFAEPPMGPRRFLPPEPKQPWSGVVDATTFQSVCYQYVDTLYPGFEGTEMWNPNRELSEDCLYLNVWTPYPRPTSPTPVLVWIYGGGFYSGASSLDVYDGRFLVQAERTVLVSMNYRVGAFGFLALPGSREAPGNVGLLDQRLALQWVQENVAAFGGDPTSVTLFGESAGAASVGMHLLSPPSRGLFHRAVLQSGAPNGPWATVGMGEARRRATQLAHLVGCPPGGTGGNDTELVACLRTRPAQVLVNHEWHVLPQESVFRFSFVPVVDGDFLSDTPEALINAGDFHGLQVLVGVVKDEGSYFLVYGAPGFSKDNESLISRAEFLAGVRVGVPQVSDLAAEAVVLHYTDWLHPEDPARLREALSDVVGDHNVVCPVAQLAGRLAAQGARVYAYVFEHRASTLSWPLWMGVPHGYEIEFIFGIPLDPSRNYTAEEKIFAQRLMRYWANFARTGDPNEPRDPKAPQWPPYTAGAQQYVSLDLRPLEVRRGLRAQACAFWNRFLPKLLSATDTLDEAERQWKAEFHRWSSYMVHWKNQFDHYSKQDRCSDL

Progesterone receptor = molecular target: T3, Progesterone receptor (Bos taurus, UniProt Q690N0); test: DRUGMATRIX: Progesterone radioligand binding (ligand: [3H] R-5020); format: tissue-based, Uterus; settings: Not Active = under 50% inhibition at 10 µM
T3 sequence (Q690N0 whole entry): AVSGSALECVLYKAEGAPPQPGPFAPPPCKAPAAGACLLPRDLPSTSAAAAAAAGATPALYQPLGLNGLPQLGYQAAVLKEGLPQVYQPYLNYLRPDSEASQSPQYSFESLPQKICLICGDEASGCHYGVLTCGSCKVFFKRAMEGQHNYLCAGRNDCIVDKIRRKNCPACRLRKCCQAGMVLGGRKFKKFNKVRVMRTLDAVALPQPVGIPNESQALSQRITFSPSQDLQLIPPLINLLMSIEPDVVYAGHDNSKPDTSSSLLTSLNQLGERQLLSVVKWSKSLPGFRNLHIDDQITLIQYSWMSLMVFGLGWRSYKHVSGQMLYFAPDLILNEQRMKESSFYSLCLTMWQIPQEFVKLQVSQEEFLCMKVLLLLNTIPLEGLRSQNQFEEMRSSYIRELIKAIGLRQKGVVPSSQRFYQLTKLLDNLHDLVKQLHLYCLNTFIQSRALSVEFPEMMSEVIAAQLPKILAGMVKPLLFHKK

[8] = molecular target: C-C chemokine receptor type 2 (Homo sapiens, UniProt P41597); format: cell membranes, CHO-K1, Membrane; settings: cho-k1; further: in other assays of this panel Not Active means under 50% inhibition at 10 µM
Chain of C-C chemokine receptor type 2 (P41597 whole entry): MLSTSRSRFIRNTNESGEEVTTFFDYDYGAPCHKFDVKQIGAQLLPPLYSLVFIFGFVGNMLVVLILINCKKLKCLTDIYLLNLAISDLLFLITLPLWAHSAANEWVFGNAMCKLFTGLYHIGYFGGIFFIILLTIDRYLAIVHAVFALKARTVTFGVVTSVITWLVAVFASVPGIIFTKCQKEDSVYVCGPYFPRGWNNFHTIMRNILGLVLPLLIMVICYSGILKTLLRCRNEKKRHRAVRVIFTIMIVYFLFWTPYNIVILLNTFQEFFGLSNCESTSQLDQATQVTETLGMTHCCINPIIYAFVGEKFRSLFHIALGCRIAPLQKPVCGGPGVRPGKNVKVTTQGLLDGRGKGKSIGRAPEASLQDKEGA

[9] = DRUGMATRIX: Phosphodiesterase PDE4 enzyme inhibition (substrate: [3H]cAMP + cAMP); settings: u-937; Not Active = under 50% inhibition at 10 µM
Adenosine receptor A2a = Adenosine receptor A2a (Homo sapiens, UniProt P29274); test: DRUGMATRIX: Adenosine A2A radioligand binding (ligand: […]); format: cell membranes, HEK293, Membrane; settings: hek293; Not Active = under 50% inhibition at 10 µM
Chain of Adenosine receptor A2a (P29274 whole entry): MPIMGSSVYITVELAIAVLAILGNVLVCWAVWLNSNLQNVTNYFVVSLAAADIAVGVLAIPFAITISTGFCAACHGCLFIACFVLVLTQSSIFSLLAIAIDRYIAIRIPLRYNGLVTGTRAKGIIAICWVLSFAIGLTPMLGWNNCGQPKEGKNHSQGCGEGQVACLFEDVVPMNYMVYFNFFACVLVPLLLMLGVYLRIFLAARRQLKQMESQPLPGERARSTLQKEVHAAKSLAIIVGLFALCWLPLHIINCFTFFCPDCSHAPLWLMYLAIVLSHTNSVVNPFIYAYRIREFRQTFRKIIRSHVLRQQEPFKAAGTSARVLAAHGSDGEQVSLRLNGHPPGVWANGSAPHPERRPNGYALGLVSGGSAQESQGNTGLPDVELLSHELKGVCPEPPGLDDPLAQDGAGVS

Row | SMILES | IC50 [1] | IC50 [2] | Ki [2] | IC50 [3] | IC50 [4] | IC50 [5] | IC50 [6] | IC50 ([7]; cho-k1) | IC50 (Acetylcholinesterase) | IC50 (Progesterone receptor) | IC50 [8] | IC50 [9] | Ki [9] | IC50 (Adenosine receptor A2a) | IC50 ([2]; read-out: IC50) [nM] | Ki ([2]; read-out: Ki) [nM] | IC50 ([7]; read-out: IC50) [nM] | Ki ([7]; read-out: Ki) [nM]
1 | CN1CCC[C@H]1c1cccnc1 [NICOTINE] | Not Active | Not Active | Not Active | Not Active | Not Active | Not Active | Not Active | Not Active | Not Active | Not Active | Not Active | Not Active | Not Active | Not Active | – | – | – | –
2 | O=C1CN=C(c2ccccc2)c2cc([N+](=O)[O-])ccc2N1 [NITRAZEPAM] | Not Active | Not Active | Not Active | Not Active | Not Active | Not Active | Not Active | Not Active | Not Active | Not Active | Not Active | Not Active | Not Active | Not Active | – | – | – | –
3 | CNCCC=C1c2ccccc2CCc2ccccc21 [NORTRIPTYLINE] | Not Active | – | – | Not Active | Not Active | Not Active | Not Active | – | Not Active | Not Active | Not Active | Not Active | Not Active | Not Active | 3860 | 2570 | 136 | 86
4 | CC1COc2c(N3CCN(C)CC3)c(F)cc3c(=O)c(C(=O)O)cn1c23 (stereo unspecified) [OFLOXACIN] | Not Active | Not Active | Not Active | Not Active | Not Active | Not Active | Not Active | Not Active | Not Active | Not Active | Not Active | Not Active | Not Active | Not Active | – | – | – | –
5 | Oc1cccc2cccnc12 [OXYQUINOLINE] | Not Active | Not Active | Not Active | Not Active | Not Active | Not Active | Not Active | Not Active | Not Active | Not Active | Not Active | Not Active | Not Active | Not Active | – | – | – | –
